US12264156B2, “Compounds and pharmaceutical compositions thereof for the treatment of diseases” (GALAPAGOS NV, priority 2018, dated 2025)
Blank lines part the entries; values can stand above or below the compound they belong to.

Key:
[1] = system: LPS-induced TNFα in monocytes; assay: Monocytes assay: LPS-triggered TNFα (ELISA); type: cell-based, human; settings: LPS 200 ng/mL, supernatant after 4 h
Summary of the method: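 Supernatant TNFα was quantified by luminol-based sandwich ELISA after 4 h stimulation with LPS (200 ng/mL final). The cells were CD14-bead-purified monocytes from human PBMCs, 100 000 per well, exposed to 3-fold compound dilutions for 1 h at 37° C beforehand, with DMSO at 0.2%. Results are reported as percent inhibition.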

[2] = system: LPS triggered IL-10 secretion in monocytes; assay: Monocytes assay: LPS-triggered IL-10 (ELISA); type: cell-based, human; settings: LPS 200 ng/mL, supernatant after 4 h, maximal fold change vs LPS only
Summary of the method: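 Human CD14+ monocytes, magnetically isolated from buffy-coat PBMCs, were seeded at 100 000 cells/well and preincubated with compound for 1 h at 37° C (0.2% DMSO). LPS was then added at a final 200 ng/mL for 4 h. Supernatant IL-10 was quantified by chemiluminescent sandwich ELISA against a standard curve.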

Structure (SMILES): COc1cc(-c2cnc3cc(OCCN4CCN(C)CC4)ccn23)cc(OC(F)F)c1C(=O)NC1CC1 [compound 9, N-cyclopropyl-2-(difluoromethoxy)-6-methoxy-4-[7-[2-(4-methylpiperazin-1-yl)ethoxy]imidazo[1,2-a]pyridin-3-yl]benzamide]
EC50 ([1]; Homo sapiens, Monocyte, 4 h): 0.1 to 100 nM | IL-10 FCmax median [2]: +++ (>4.5)

Structure (SMILES): COc1cc(-c2cnc3cc(OCCN4CCOC[C@H]4C)ccn23)cc(OC(F)F)c1C(=O)NC1CC1 [compound 234, N-cyclopropyl-2-(difluoromethoxy)-6-methoxy-4-[7-[2-[(3R)-3-methylmorpholin-4-yl]ethoxy]imidazo[1,2-a]pyridin-3-yl]benzamide]
EC50 ([1]; Homo sapiens, Monocyte, 4 h): 100 to 1000 nM | IL-10 FCmax median [2]: +++ (>4.5)

Structure (SMILES): COc1cc(-c2cnc3cc(OCCN4CCOC[C@@H]4C)ccn23)cc(OC(F)F)c1C(=O)NC1CC1 [compound 233, N-cyclopropyl-2-(difluoromethoxy)-6-methoxy-4-[7-[2-[(3S)-3-methylmorpholin-4-yl]ethoxy]imidazo[1,2-a]pyridin-3-yl]benzamide]
EC50 ([1]; Homo sapiens, Monocyte, 4 h): 100 to 1000 nM | IL-10 FCmax median [2]: +++ (>4.5)

Structure (SMILES): COc1cc(-c2cnc3cc(OCCN4CCOC[C@H]4C)ccn23)cc2c1C(=O)N(CC(F)(F)F)CC2 [compound 259, 8-methoxy-6-[7-[2-[(3R)-3-methylmorpholin-4-yl]ethoxy]imidazo[1,2-a]pyridin-3-yl]-2-(2,2,2-trifluoroethyl)-3,4-dihydroisoquinolin-1-one]
EC50 ([1]; Homo sapiens, Monocyte, 4 h): 100 to 1000 nM | IL-10 FCmax median [2]: +++ (>4.5)

Structure (SMILES): COc1cc(-c2cnc3cc(OCCCN4CCS(=O)(=O)CC4)ccn23)cc(OC(F)F)c1C(=O)NC1CC1 [Cpd 331, N-cyclopropyl-2-(difluoromethoxy)-4-[7-[3-(1,1-dioxo-1,4-thiazinan-4-yl)propoxy]imidazo[1,2-a]pyridin-3-yl]-6-methoxy-benzamide]
EC50 ([1]; Homo sapiens, Monocyte, 4 h): 0.1 to 100 nM | IL-10 FCmax median [2]: +++ (>4.5)

Structure (SMILES): COc1cc(-c2cnc3cc(OC(C)(C)CO)ccn23)cc(OC(F)F)c1C(=O)NC1CC1 [Cpd 209, N-cyclopropyl-2-(difluoromethoxy)-4-[7-(2-hydroxy-1,1-dimethyl-ethoxy)imidazo[1,2-a]pyridin-3-yl]-6-methoxy-benzamide]
EC50 ([1]; Homo sapiens, Monocyte, 4 h): 100 to 1000 nM | IL-10 FCmax median [2]: + (≤1.5)

Structure (SMILES): COc1cc(-c2cnc3cc(OCC4(C)CN(C)C4)ccn23)cc(OC(F)F)c1C(=O)NC1CC1 [compound 220, N-cyclopropyl-2-(difluoromethoxy)-4-[7-[(1,3-dimethylazetidin-3-yl)methoxy]imidazo[1,2-a]pyridin-3-yl]-6-methoxy-benzamide]
EC50 ([1]; Homo sapiens, Monocyte, 4 h): 100 to 1000 nM | IL-10 FCmax median [2]: +++ (>4.5)

Structure (SMILES): COc1cc(-c2cnc3cc(OCC(O)CN4CCOCC4)ccn23)cc(OC(F)F)c1C(=O)NC1CC1 (single isomer, unassigned) [Cpd 387, N-cyclopropyl-2-(difluoromethoxy)-4-[7-(2-hydroxy-3-morpholino-propoxy)imidazo[1,2-a]pyridin-3-yl]-6-methoxy-benzamide]
EC50 [1]: 0.1 to 100 nM | IL-10 FCmax median [2]: +++ (>4.5)

Structure (SMILES): COc1cc(-c2cnc3cc(OCC(O)CN4CCOCC4)ccn23)cc(OC(F)F)c1C(=O)NC1CC1 (centres unmarked) [Cpd 330, N-cyclopropyl-2-(difluoromethoxy)-4-[7-(2-hydroxy-3-morpholino-propoxy)imidazo[1,2-a]pyridin-3-yl]-6-methoxy-benzamide]
EC50 ([1]; Homo sapiens, Monocyte, 4 h): 100 to 1000 nM | IL-10 FCmax median [2]: +++ (>4.5)

Structure (SMILES): COc1cc(-c2cnc3cc(OCCN4C5CCC4COC5)ccn23)cc(OC(F)F)c1C(=O)NC1CC1 [compound 193, N-cyclopropyl-2-(difluoromethoxy)-6-methoxy-4-[7-[2-(3-oxa-8-azabicyclo [3.2.1]octan-8-yl)ethoxy]imidazo[1,2-a]pyridin-3-yl]benzamide]
EC50 ([1]; Homo sapiens, Monocyte): 0.1 to 100 nM | IL-10 FCmax median [2]: +++ (>4.5)

Structure (SMILES): COc1cc(-c2cnc3cc(OCC(O)CN4CCOCC4)ccn23)cc(OC(F)F)c1C(=O)NC1CC1 (single isomer, unassigned) [Cpd 386, N-cyclopropyl-2-(difluoromethoxy)-4-[7-(2-hydroxy-3-morpholino-propoxy)imidazo[1,2-a]pyridin-3-yl]-6-methoxy-benzamide]
EC50 [1]: 100 to 1000 nM | IL-10 FCmax median [2]: +++ (>4.5)

Structure (SMILES): COc1cc(-c2cnc3cc(OCC4(F)CN(C(=O)OC(C)(C)C)C4)ccn23)cc2c1C(=O)N(CC(F)(F)F)CC2 [compound 248, tert-butyl 3-fluoro-3-[[3-[8-methoxy-1-oxo-2-(2,2,2-trifluoroethyl)-3,4-dihydroisoquinolin-6-yl]imidazo[1,2-a]pyridin-7-yl]oxymethyl]azetidine-1-carboxylate]
EC50 ([1]; Homo sapiens, Monocyte, 4 h): 100 to 1000 nM | IL-10 FCmax median [2]: +++ (>4.5)

Structure (SMILES): COc1cc(-c2cnc3cc(OCC4(F)CN(C)C4)ccn23)cc2c1C(=O)N(CC(F)(F)F)CC2 [compound 252, 6-[7-[(3-fluoro-1-methyl-azetidin-3-yl)methoxy]imidazo[1,2-a]pyridin-3-yl]-8-methoxy-2-(2,2,2-trifluoroethyl)-3,4-dihydro isoquinolin-1-one]
EC50 ([1]; Homo sapiens, Monocyte, 4 h): 100 to 1000 nM | IL-10 FCmax median [2]: +++ (>4.5)

Structure (SMILES): COc1cc(-c2cnc3cc(OCCCN4CCC5(CC4)CNC(=O)O5)ccn23)cc(OC(F)F)c1C(=O)NC1CC1 [Cpd 324, N-cyclopropyl-2-(difluoromethoxy)-6-methoxy-4-[7-[3-(2-oxo-1-oxa-3,8-diazaspiro[4.5]decan-8-yl)propoxy]imidazo[1,2-a]pyridin-3-yl]benzamide]
EC50 ([1]; Homo sapiens, Monocyte, 4 h): 100 to 1000 nM | IL-10 FCmax median [2]: ++ (>1.5-4.5)

Structure (SMILES): COc1cc(-c2cnc3cc(OC[C@H]4COCCO4)ccn23)cc2c1C(=O)NCC2 [compound 242, 6-[7-[[(2R)-1,4-dioxan-2-yl]methoxy]imidazo[1,2-a]pyridin-3-yl]-8-methoxy-3,4-dihydro-2H-isoquinolin-1-one]
EC50 ([1]; Homo sapiens, Monocyte, 4 h): 100 to 1000 nM | IL-10 FCmax median [2]: ++ (>1.5-4.5)

Structure (SMILES): COc1cc(-c2cnc3cc(OCCN4CC(F)(F)C4)ccn23)cc2c1C(=O)N(CC(F)(F)F)CC2 [Cpd 244, 6-[7-[2-(3,3-difluoroazetidin-1-yl)ethoxy]imidazo[1,2-a]pyridin-3-yl]-8-methoxy-2-(2,2,2-trifluoroethyl)-3,4-dihydroisoquinolin-1-one]
EC50 ([1]; Homo sapiens, Monocyte, 4 h): 100 to 1000 nM | IL-10 FCmax median [2]: +++ (>4.5)

Structure (SMILES): COc1cc(-c2cnc3cc(OCCCN4CC(O)C4)ccn23)cc(OC(F)F)c1C(=O)NC1CC1 [Cpd 286, N-cyclopropyl-2-(difluoromethoxy)-4-[7-[3-(3-hydroxyazetidin-1-yl)propoxy]imidazo[1,2-a]pyridin-3-yl]-6-methoxy-benzamide]
EC50 ([1]; Homo sapiens, Monocyte, 4 h): 100 to 1000 nM | IL-10 FCmax median [2]: ++ (>1.5-4.5)

Now from value to compound, other results behind:

EC50 ([1]; Homo sapiens, Monocyte, 4 h): 0.1 to 100 nM
Structure (SMILES): CCOC(=O)C1(F)CCN(CCOc2ccn3c(-c4cc(OC)c(C(=O)NC5CC5)c(OC(F)F)c4)cnc3c2)CC1 [compound 390, ethyl 1-[2-[3-[4-(cyclopropylcarbamoyl)-3-(difluoromethoxy)-5-methoxy-phenyl]imidazo[1,2-a]pyridin-7-yl]oxyethyl]-4-fluoro-piperidine-4-carboxylate]
IL-10 FCmax median [2]: +++ (>4.5)

EC50 ([1]; Homo sapiens, Monocyte, 4 h): 100 to 1000 nM
Structure (SMILES): COc1cc(-c2cnc3cc(OCCCN4CCCC(O)C4)ccn23)cc(OC(F)F)c1C(=O)NC1CC1 (centres unmarked) [compound 328, N-cyclopropyl-2-(difluoromethoxy)-4-[7-[3-(3-hydroxy-1-piperidyl)propoxy]imidazo [1,2-a]pyridin-3-yl]-6-methoxy-benzamide]
IL-10 FCmax median [2]: +++ (>4.5)

EC50 ([1]; Homo sapiens, Monocyte, 4 h): 0.1 to 100 nM
Structure (SMILES): COc1cc(-c2cnc3cc(OCCCN4CCC5(CC4)CN(C)C(=O)O5)ccn23)cc(OC(F)F)c1C(=O)NC1CC1 [compound 325, N-cyclopropyl-2-(difluoromethoxy)-6-methoxy-4-[7-[3-(3-methyl-2-oxo-1-oxa-3,8-diazaspiro[4.5]decan-8-yl)propoxy]imidazo[1,2-a]pyridin-3-yl]benzamide]
IL-10 FCmax median [2]: ++ (>1.5-4.5)

EC50 ([1]; Homo sapiens, Monocyte, 4 h): 100 to 1000 nM
Structure (SMILES): COc1cc(-c2cnc3cc(OCCN4CCN(C(C)C)CC4)ccn23)cc(OC(F)F)c1C(=O)NC1CC1 [compound 276, N-cyclopropyl-2-(difluoromethoxy)-4-[7-[2-(4-isopropylpiperazin-1-yl)ethoxy]imidazo[1,2-a]pyridin-3-yl]-6-methoxy-benzamide]
IL-10 FCmax median [2]: ++ (>1.5-4.5)

EC50 ([1]; Homo sapiens, Monocyte, 4 h): 0.1 to 100 nM
Structure (SMILES): CCOC(=O)C1(F)CCN(CC(O)COc2ccn3c(-c4cc(OC)c(C(=O)NC5CC5)c(OC(F)F)c4)cnc3c2)CC1 (centres unmarked) [compound 384, ethyl 1-[3-[3-[4-(cyclopropylcarbamoyl)-3-(difluoromethoxy)-5-methoxy-phenyl]imidazo[1,2-a]pyridin-7-yl]oxy-2-hydroxy-propyl]-4-fluoro-piperidine-4-carboxylate]
IL-10 FCmax median [2]: ++ (>1.5-4.5)

EC50 ([1]; Homo sapiens, Monocyte, 4 h): 100 to 1000 nM
Structure (SMILES): COc1cc(-c2cnc3cc(OCCCN4CC5(COC5)C4)ccn23)cc(OC(F)F)c1C(=O)NC1CC1 [compound 273, N-cyclopropyl-2-(difluoromethoxy)-6-methoxy-4-[7-[3-(2-oxa-6-azaspiro[3.3]heptan-6-yl)propoxy]imidazo[1,2-a]pyridin-3-yl]benzamide]
IL-10 FCmax median [2]: ++ (>1.5-4.5)

EC50 ([1]; Homo sapiens, Monocyte, 4 h): 100 to 1000 nM
Structure (SMILES): COc1cc(-c2cnc3cc(OCCCN4CCC4)ccn23)cc(OC(F)F)c1C(=O)NC1CC1 [compound 274, 4-[7-[3-(azetidin-1-yl)propoxy]imidazo[1,2-a]pyridin-3-yl]-N-cyclopropyl-2-(difluoromethoxy)-6-methoxy-benzamide]
IL-10 FCmax median [2]: ++ (>1.5-4.5)

EC50 ([1]; Homo sapiens, Monocyte, 4 h): 100 to 1000 nM
Structure (SMILES): COc1cc(-c2cnc3cc(OCCCN4CCCC4)ccn23)cc(OC(F)F)c1C(=O)NC1CC1 [compound 275, N-cyclopropyl-2-(difluoromethoxy)-6-methoxy-4-[7-(3-pyrrolidin-1-ylpropoxy)imidazo[1,2-a]pyridin-3-yl]benzamide]
IL-10 FCmax median [2]: +++ (>4.5)
